{"source": "patent US12409171B2", "about": "“Pharmaceutically active pyrazolo-pyridone modulators of DCN1/2-mediated cullin neddylation” (UNIVERSITY OF KENTUCKY RESEARCH FOUNDATION, priority 2019, dated 2025)", "target": "DCN1 (Homo sapiens (Human), UniProt Q96GG9)", "sequence (Q96GG9 whole entry)": "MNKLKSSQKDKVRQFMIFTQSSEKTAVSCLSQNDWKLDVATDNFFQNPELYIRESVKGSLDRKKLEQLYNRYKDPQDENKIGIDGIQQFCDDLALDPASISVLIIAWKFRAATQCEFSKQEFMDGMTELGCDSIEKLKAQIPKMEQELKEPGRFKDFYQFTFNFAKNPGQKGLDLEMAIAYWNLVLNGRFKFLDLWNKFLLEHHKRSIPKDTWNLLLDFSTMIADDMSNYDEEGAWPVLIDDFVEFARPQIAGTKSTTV", "experiment": "TR-FRET binding assay (biotin-DCN1 / Ac-UBE2M12-AlexaFluor488)", "conditions": "mean ± SD (n); read-out: DCN1_TRFRET Mean EC50", "method": "• IC50 values were generated using our TR-FRET binding assay and are represented as the mean of three replicates with errors reported as the standard deviation.\nThe assay cocktail was then incubated for 1 h at room temperature and distributed using a WellMate instrument (Matrix). Compounds to be screened were added to assay plates from DMSO stock solutions by pin transfer using 50SS pins (V&P Scientific). […] All compounds were tested in triplicate or more."}
{"smiles": "CCN1C(=O)[C@@H](NC(=O)c2cccc(I)c2)[C@@H](c2ccc(F)cc2)c2c(C)nn(-c3ccccc3)c21", "note": "[RG-0013060, N-[(4S,5S)-7-ethyl-4-(4-fluorophenyl)-3-methyl-6-oxo-1-phenyl-1H,4H,5H,6H,7H-pyrazolo[3,4-b]pyridin-5-yl]-3-iodobenzamide]", "values": [{"measurement": "EC50", "value": "461 ± 29.4", "unit": "nM"}]}
{"smiles": "CCN1C(=O)[C@@H](NC(=O)c2cccc(C(F)(F)F)c2)[C@@H](c2ccc(F)nc2)c2c(CO)nn(-c3ccccc3)c21", "note": "[RG-0013992, N-[(4S,5S)-7-ethyl-4-(6-fluoropyridin-3-yl)-3-(hydroxymethyl)-6-oxo-1-phenyl-1H,4H,5H,6H,7H-pyrazolo[3,4-b]pyridin-5-yl]-3-(trifluoromethyl)benzamide]", "values": [{"measurement": "EC50", "value": "157 ± 19.2", "unit": "nM"}]}
{"smiles": "C=CCN1C(=O)[C@@H](NC(=O)c2cccc(C(F)(F)F)c2)[C@@H](c2ccc(F)cc2)c2c(C)nn(-c3ccccc3)c21", "note": "[RG-0014007, N-[(4S,5S)-4-(4-fluorophenyl)-3-methyl-6-oxo-1-phenyl-7-(prop-2-en-1-yl)-1H,4H,5H,6H,7H-pyrazolo[3,4-b]pyridin-5-yl]-3-(trifluoromethyl)benzamide]", "values": [{"measurement": "EC50", "value": "1550 ± 157", "unit": "nM"}]}
{"smiles": "CCC(C)n1nc(C)c2c1N(C(C)=O)C(=O)[C@@H](NC(=O)c1cccc(C)c1)[C@H]2c1ccc(F)cc1", "note": "(stereo partly drawn) [RG-0005665, N-[(4S,5S)-7-acetyl-1-(butan-2-yl)-4-(4-fluorophenyl)-3-methyl-6-oxo-1H,4H,5H,6H,7H-pyrazolo[3,4-b]pyridin-5-yl]-3-methylbenzamide]", "values": [{"measurement": "EC50", "value": "5310 ± 850", "unit": "nM"}]}
{"smiles": "Cc1cccc(C(=O)N[C@@H]2C(=O)N(C)c3c(c(C)nn3C(C)(C)C)[C@@H]2c2ccc(F)cc2)c1", "note": "[RG-0007412, N-[(4S,5S)-1-tert-butyl-4-(4-fluorophenyl)-3,7-dimethyl-6-oxo-1H,4H,5H,6H,7H-pyrazolo[3,4-b]pyridin-5-yl]-3-methylbenzamide]", "values": [{"measurement": "EC50", "value": "2340 ± 745", "unit": "nM"}]}
{"smiles": "CCN1C(=O)[C@@H](NC(=O)c2cccc(C(F)(F)F)c2)[C@@H](c2cncs2)c2c(C)nn(-c3ccccc3)c21", "note": "[RG-0014005, N-[(4S,5S)-7-ethyl-3-methyl-6-oxo-1-phenyl-4-(1,3-thiazol-5-yl)-1H,4H,5H,6H,7H-pyrazolo[3,4-b]pyridin-5-yl]-3-(trifluoromethyl)benzamide]", "values": [{"measurement": "EC50", "value": "1920 ± 75.2", "unit": "nM"}]}
{"smiles": "CCN1C(=O)[C@@H](NC(=O)c2cccc(C(F)(F)F)c2)[C@@H](c2ccc(F)cc2)c2c(CNC)nn(-c3ccccc3)c21", "note": "[RG-0014056, N-[(4S,5S)-7-ethyl-4-(4-fluorophenyl)-3-[(methylamino)methyl]-6-oxo-1-phenyl-1H,4H,5H,6H,7H-pyrazolo[3,4-b]pyridin-5-yl]-3-(trifluoromethyl)benzamide]", "values": [{"measurement": "EC50", "value": "118 ± 9.03", "unit": "nM"}]}
{"smiles": "CCN1C(=O)[C@@H](N(CC)C(=O)c2cccc(C)c2)[C@@H](c2ccc(F)cc2)c2c(C)nn(-c3ccccc3)c21", "note": "[RG-0009505, N-ethyl-N-[(4S,5S)-7-ethyl-4-(4-fluorophenyl)-3-methyl-6-oxo-1-phenyl-1H,4H,5H,6H,7H-pyrazolo[3,4-b]pyridin-5-yl]-3-methylbenzamide]", "values": [{"measurement": "EC50", "value": "2620 ± 404", "unit": "nM"}]}
{"smiles": "CCN1C(=O)[C@@H](NC(=O)c2cccc(C)c2)[C@@H](c2ccc(F)cc2)c2c(C)nn(CC)c21", "note": "[RG-0008869, N-[(4S,5S)-1,7-diethyl-4-(4-fluorophenyl)-3-methyl-6-oxo-1H,4H,5H,6H,7H-pyrazolo[3,4-b]pyridin-5-yl]-3-methylbenzamide]", "values": [{"measurement": "EC50", "value": "384 ± 30.6", "unit": "nM"}]}
{"smiles": "CCN1C(=O)[C@@H](NC(=O)c2cccc(C(F)(F)F)c2)[C@@H](c2ccc(C)s2)c2c(C)nn(-c3ccccc3)c21", "note": "[RG-0014004, N-[(4S,5S)-7-ethyl-3-methyl-4-(5-methylthiophen-2-yl)-6-oxo-1-phenyl-1H,4H,5H,6H,7H-pyrazolo[3,4-b]pyridin-5-yl]-3-(trifluoromethyl)benzamide]", "values": [{"measurement": "EC50", "value": "1410 ± 15.9", "unit": "nM"}]}
{"smiles": "CCN1C(=O)[C@@H](NC(=O)c2cccc(C(F)(F)F)c2)[C@@H](c2ccc(F)cc2)c2c(CN3CCC(F)CC3)nn(-c3ccccc3)c21", "note": "[RG-0014147, N-[(4S,5S)-7-ethyl-4-(4-fluorophenyl)-3-[(4-fluoropiperidin-1-yl)methyl]-6-oxo-1-phenyl-1H,4H,5H,6H,7H-pyrazolo[3,4-b]pyridin-5-yl]-3-(trifluoromethyl)benzamide]", "values": [{"measurement": "EC50", "value": "112 ± 16", "unit": "nM"}]}
{"smiles": "CCN1C(=O)[C@@H](NC(=O)c2cccc(C(F)(F)F)c2)[C@@H](c2ccc(F)cc2)c2c(CNCCNC(=O)OC(C)(C)C)nn(-c3ccccc3)c21", "note": "[RG-0014142, tert-butyl N-[2-({[(4S,5S)-7-ethyl-4-(4-fluorophenyl)-6-oxo-1-phenyl-5-[3-(trifluoromethyl)benzamido]-1H,4H,5H,6H,7H-pyrazolo[3,4-b]pyridin-3-yl]methyl}amino)ethyl]carbamate]", "values": [{"measurement": "EC50", "value": "116 ± 17.5", "unit": "nM"}]}
{"smiles": "CCN1C(=O)[C@@H](NC(=O)c2cccc(C(F)(F)F)c2)[C@@H](c2ccc(F)cc2)c2c(CN3CCN(C(=O)OC(C)(C)C)CC3)nn(-c3ccccc3)c21", "note": "[RG-0014059, tert-butyl 4-{[(4S,5S)-7-ethyl-4-(4-fluorophenyl)-6-oxo-1-phenyl-5-[3-(trifluoromethyl)benzamido]-1H,4H,5H,6H,7H-pyrazolo[3,4-b]pyridin-3-yl]methyl}piperazine-1-carboxylate]", "values": [{"measurement": "EC50", "value": "231 ± 16.5", "unit": "nM"}]}
{"smiles": "CCN1C(=O)[C@@H](NC(=O)c2ccc3c(ccn3C)c2)[C@@H](c2ccc(F)cc2)c2c(C)nn(-c3ccccc3)c21", "note": "[RG-0014151, N-[(4S,5S)-7-ethyl-4-(4-fluorophenyl)-3-methyl-6-oxo-1-phenyl-1H,4H,5H,6H,7H-pyrazolo[3,4-b]pyridin-5-yl]-1-methyl-1H-indole-5-carboxamide]", "values": [{"measurement": "EC50", "value": "3230 ± 806", "unit": "nM"}]}
{"smiles": "CCN1C(=O)[C@@H](NC(=O)c2cccc(OC)c2)[C@@H](c2ccc(F)cc2)c2c(C)nn(-c3ccccc3)c21", "note": "[RG-0013979, N-[(4S,5S)-7-ethyl-4-(4-fluorophenyl)-3-methyl-6-oxo-1-phenyl-1H,4H,5H,6H,7H-pyrazolo[3,4-b]pyridin-5-yl]-3-methoxybenzamide]", "values": [{"measurement": "EC50", "value": "629 ± 64.8", "unit": "nM"}]}
{"smiles": "CCN1C(=O)[C@@H](NC(=O)c2cccc(C(F)(F)F)c2)[C@@H](c2cc(C)cs2)c2c(C)nn(-c3ccccc3)c21", "note": "[RG-0013987, N-[(4S,5S)-7-ethyl-3-methyl-4-(4-methylthiophen-2-yl)-6-oxo-1-phenyl-1H,4H,5H,6H,7H-pyrazolo[3,4-b]pyridin-5-yl]-3-(trifluoromethyl)benzamide]", "values": [{"measurement": "EC50", "value": "3100 ± 559", "unit": "nM"}]}
{"smiles": "Cc1cccc(C(=O)N[C@@H]2CNc3c(c(C)nn3-c3ccccc3)[C@@H]2c2ccc(F)cc2)c1", "note": "[RG-0009506, N-[(4S,5S)-4-(4-fluorophenyl)-3-methyl-1-phenyl-1H,4H,5H,6H,7H-pyrazolo[3,4-b]pyridin-5-yl]-3-methylbenzamide]", "values": [{"measurement": "EC50", "value": "> 36500", "unit": "nM"}]}
{"smiles": "CCN1C(=O)[C@@H](NC(=O)c2cccc(C(F)(F)F)c2)[C@@H](c2ccc(F)cc2)c2c(CNC(=O)OC)nn(-c3ccccc3)c21", "note": "[RG-0014054, methyl N-{[(4S,5S)-7-ethyl-4-(4-fluorophenyl)-6-oxo-1-phenyl-5-[3-(trifluoromethyl)benzamido]-1H,4H,5H,6H,7H-pyrazolo[3,4-b]pyridin-3-yl]methyl}carbamate]", "values": [{"measurement": "EC50", "value": "114 ± 4.73", "unit": "nM"}]}
{"smiles": "CCCN1C(=O)[C@@H](NC(=O)c2cccc(C)c2)[C@@H](c2ccc(F)cc2)c2c(C)nn(-c3ccccc3)c21", "note": "[RG-0007415, N-[(4S,5S)-4-(4-fluorophenyl)-3-methyl-6-oxo-1-phenyl-7-propyl-1H,4H,5H,6H,7H-pyrazolo[3,4-b]pyridin-5-yl]-3-methylbenzamide]", "values": [{"measurement": "EC50", "value": "1040 ± 204", "unit": "nM"}]}
{"smiles": "CCN1C[C@@H](NC(=O)c2cccc(C)c2)[C@@H](c2ccc(F)cc2)c2c(C)nn(-c3ccccc3)c21", "note": "[RG-0009507, N-[(4S,5S)-7-ethyl-4-(4-fluorophenyl)-3-methyl-1-phenyl-1H,4H,5H,6H,7H-pyrazolo[3,4-b]pyridin-5-yl]-3-methylbenzamide]", "values": [{"measurement": "EC50", "value": "> 36500", "unit": "nM"}]}
{"smiles": "CCCn1nc(C)c2c1N(CC)C(=O)[C@@H](NC(=O)c1cccc(C)c1)[C@H]2c1ccc(F)cc1", "note": "[RG-0008665, N-[(4S,5S)-7-ethyl-4-(4-fluorophenyl)-3-methyl-6-oxo-1-propyl-1H,4H,5H,6H,7H-pyrazolo[3,4-b]pyridin-5-yl]-3-methylbenzamide]", "values": [{"measurement": "EC50", "value": "244 ± 20.8", "unit": "nM"}]}
{"smiles": "CCN1C(=O)[C@@H](NC(=O)c2ccc3ncsc3c2)[C@@H](c2ccc(F)cc2)c2c(C)nn(-c3ccccc3)c21", "note": "[RG-0014158, N-[(4S,5S)-7-ethyl-4-(4-fluorophenyl)-3-methyl-6-oxo-1-phenyl-1H,4H,5H,6H,7H-pyrazolo[3,4-b]pyridin-5-yl]-1,3-benzothiazole-6-carboxamide]", "values": [{"measurement": "EC50", "value": "6310 ± 465", "unit": "nM"}]}
{"smiles": "CCN1C(=O)[C@@H](NC(=O)c2cccc(C)c2)[C@@H](c2ccc(F)cc2)c2c(C)nn(-c3ccc(F)cc3)c21", "note": "[RG-0008866, N-[(4S,5S)-7-ethyl-1,4-bis(4-fluorophenyl)-3-methyl-6-oxo-1H,4H,5H,6H,7H-pyrazolo[3,4-b]pyridin-5-yl]-3-methylbenzamide]", "values": [{"measurement": "EC50", "value": "489 ± 18.5", "unit": "nM"}]}
{"smiles": "CCN1C(=O)[C@@H](NC(=O)c2cccc(C(F)(F)F)c2)[C@@H](c2ccc(F)cc2)c2c(CNS(C)(=O)=O)nn(-c3ccccc3)c21", "note": "[RG-0014140, N-[(4S,5S)-7-ethyl-4-(4-fluorophenyl)-3-(methanesulfonamidomethyl)-6-oxo-1-phenyl-1H,4H,5H,6H,7H-pyrazolo[3,4-b]pyridin-5-yl]-3-(trifluoromethyl)benzamide]", "values": [{"measurement": "EC50", "value": "94.7 ± 19.7", "unit": "nM"}]}
{"smiles": "CCC(C)n1nc(C)c2c1N(CC)C(=O)[C@@H](NC(=O)c1cccc(C)c1)[C@H]2c1ccc(F)cc1", "note": "(stereo partly drawn) [RG-0008861, N-[(4S,5S)-1-(butan-2-yl)-7-ethyl-4-(4-fluorophenyl)-3-methyl-6-oxo-1H,4H,5H,6H,7H-pyrazolo[3,4-b]pyridin-5-yl]-3-methylbenzamide]", "values": [{"measurement": "EC50", "value": "827 ± 371", "unit": "nM"}]}
{"smiles": "CCN1C(=O)[C@@H](NC(=O)c2cccc(C(F)(F)F)c2)[C@@H](c2ccc(F)cc2)c2c(CN3CCC(F)(F)CC3)nn(-c3ccccc3)c21", "note": "[RG-0014146, N-[(4S,5S)-3-[(4,4-difluoropiperidin-1-yl)methyl]-7-ethyl-4-(4-fluorophenyl)-6-oxo-1-phenyl-1H,4H,5H,6H,7H-pyrazolo[3,4-b]pyridin-5-yl]-3-(trifluoromethyl)benzamide]", "values": [{"measurement": "EC50", "value": "321 ± 27.3", "unit": "nM"}]}
